Values of other authors as cited in patent US6270797A (USV Limited, priority 2000, dated 2001).

Key:
[1] = system: beta cells of pancreatic-islet tissue
[2] = system: insulin receptors

## Cc1cnc(C(=O)NCCc2ccc(S(=O)(=O)NC(=O)NC3CCCCC3)cc2)cn1 [Glipizide, 1-cyclohexyl-3-[[p-[2-(5-methylpyrazinecarboxamido)ethyl]phenyl]sulfonyl]urea]
[1]
  insulin secretion from the beta cells of pancreatic-islet tissue: stimulates insulin secretion
[2]
  number of insulin receptors: may increase the number of insulin receptors
